The values that follow come from patent US9399646B2 (Genentech, Inc., priority 2010, dated 2016).

Like-named read-outs stand apart in the source and are kept apart here. Some results are limits rather than exact numbers.

Holding throughout (type): cell-based
One test concerns MCF-7 cells. The test can be described thus: Breast cancer cell viability assay (CellTiter-Glo, 5 days). The conditions noted are these: 5 days' compound exposure; for IC50: Homo sapiens, MCF7, 120 h. The method, boiled down: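 Eleven-point semilog compound series, final 0.3-0.000003 μM, added to overnight-adhered MCF-7 cells (320/well; RPMI, 10% FBS, 20 mM HEPES) for 5 days. Viability read by CellTiter-Glo luminescence, background from medium without cells subtracted, expressed relative to untreated cells.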

The target in test [1] is T1, ER-α in MCF-7 cells (Homo sapiens, UniProt P03372).
T1 sequence (P03372 1-595): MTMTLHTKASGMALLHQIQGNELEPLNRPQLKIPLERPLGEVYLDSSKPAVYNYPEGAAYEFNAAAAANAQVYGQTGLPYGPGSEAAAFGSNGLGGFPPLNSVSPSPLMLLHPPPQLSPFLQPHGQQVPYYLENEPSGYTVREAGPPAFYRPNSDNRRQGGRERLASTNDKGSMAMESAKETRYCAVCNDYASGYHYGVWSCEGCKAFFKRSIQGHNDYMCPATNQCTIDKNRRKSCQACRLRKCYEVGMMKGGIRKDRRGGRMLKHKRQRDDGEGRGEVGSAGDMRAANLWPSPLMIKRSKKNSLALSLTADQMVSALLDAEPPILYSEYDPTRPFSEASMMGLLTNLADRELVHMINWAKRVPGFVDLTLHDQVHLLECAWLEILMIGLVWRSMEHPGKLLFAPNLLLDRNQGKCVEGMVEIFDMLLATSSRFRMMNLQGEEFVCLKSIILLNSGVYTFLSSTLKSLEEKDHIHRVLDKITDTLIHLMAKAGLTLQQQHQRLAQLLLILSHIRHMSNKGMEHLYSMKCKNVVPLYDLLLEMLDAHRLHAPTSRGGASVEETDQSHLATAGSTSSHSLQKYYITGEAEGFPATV
The experiment in a line: Breast cancer cell ER-α in cell western assay (SP1). Details: MCF-7 cells were adjusted to a concentration of 200,000 cells per mL; endogenous in cells; host or cells: MCF-7. The note with it: 4 or 24 hr post compound addition; for Emax: MCF7, SP1 antibody, read-out: ER-α In Cell Western Assay (SP1) Max Response; for DC50: SP1 antibody, read-out: ER-α In Cell Western Assay (SP1) IC50. As to the method: MCF-7 cells were adjusted to a concentration of 200,000 cells per mL in RPMI containing 10% charcoal-stripped FBS and 20 mM HEPES. 16 microliters of the cell suspension (3200 cells) was added to each well of a poly-D-lysine 384 well plate, and the cells were incubated overnight to allow the cells to adhere. The following day an eleven point, serial semilog dilution of each compound was added to the cells in 16 μL at a final concentration ranging from 0.3-0.000003 μM. At 4 or 24 hr post compound addition, the cells were fixed (10% formalin in PBS) for 20 minutes. Cells were permeablized in PBS 0.1% Triton and blocked with LICOR blocking buffer (50 μl/well, 90°). The wells were then incubated overnight at 4° C. with SP1 rabbit monoclonal Ab (Thermo Scientific) diluted 1:1000 in LICOR blocking buffer/0.1% Tween-20. Wells which were treated with blocking buffer with Tween but no antibody were used as a background control. Wells were washed with 0.1% Tween-20/PBS and then incubated in goat anti-rabbit IRDye™ 800CW (LICOR Inc.; 1:1000) and DRAQ5 DNA dye (1:2000 for 2 mM stock) diluted in LICOR blocking buffer containing 0.1% Tween-20 and 0.01% SDS for 60 minutes. Cells were washed (50 μl/well, 5′ each) in 0.1% Tween-20/PBS. Plates were scanned on a LICOR Odyssey infrared imaging system. Integrated intensities in the 800 nm channel and 700 nm channel were measured to determine levels of ER and DNA respectively. Percent ER levels were determined as follows: (Integrated intensity 800 nm sample/integrated intensity 700 nm sample)/(Integrated intensity 800 nm untreated cells/integrated intensity 700 nm untreated cells)×100=% ER levels.

The target in test [2] is T1, ER-α in MCF-7 cells. Described as above. Details: endogenous in cells; host or cells: MCF-7. The note with it: 4 or 24 hr post compound addition; for Emax: MCF7, SP1 antibody, read-out: ER-α In Cell Western Assay (SP1) Max Response; for DC50: SP1 antibody, read-out: ER-α In Cell Western Assay (SP1) IC50. The procedure, abridged:
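Fixed cells were immunostained with SP1 anti-ER antibody; ER signal (800 nm) was normalized to DRAQ5 DNA signal (700 nm) and expressed as % of untreated cells.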

In general, IC50 refers to the point on the concentration scale where inhibition reaches its midpoint. Lower therefore signals greater potency. For `CC/C(=C(/c1ccc(/C=C/C(=O)O)cc1)c1cn[nH]c1)c1ccccc1` [Compound 150], in the test with MCF-7 cells, the “MCF7 Viability Assay Max Response” value is “+ (+ = a single % value < 40%)” and the 50% inhibitory concentration (IC50) is over 100 nM. Moreover, on ER-α in MCF-7 cells [1], the Emax was at least 40% and the DC50 was over 100 nM.

On to `O=C(O)/C=C/c1ccc(/C(=C(\c2ccncc2Cl)C2CCC2)c2ccc3scnc3c2)cc1` [Compound 285], for which, in the test with MCF-7 cells, the “MCF7 Viability Assay Max Response” value was “++ (++ = a single % value ≧ 40%)” and the IC50 was at most 100 nM. Moreover, on ER-α in MCF-7 cells [1], the Emax was at least 40% and the DC50 was at most 100 nM.

As to `CC/C(=C(/c1ccc(/C=C/C(=O)O)cc1)c1ccc2[nH]ncc2c1)c1cccc(Oc2ccc(S(C)(=O)=O)cc2)c1` [Compound 373, (E)-3-(4-((E)-1-(1H-Indazol-5-yl)-2-(3-(4-(methylsulfonyl)phenoxy)phenyl)but-1-en-1-yl)phenyl)acrylic acid], in the test on MCF-7 cells, the “MCF7 Viability Assay Max Response” value is “++ (++ = a single % value ≧ 40%)” and the IC50 was at most 100 nM. At ER-α in MCF-7 cells [2], the Emax is at least 40% and the DC50 was at most 100 nM.

As to `CC/C(=C(/c1ccc(/C=C/C(=O)O)cc1)c1ccc2[nH]ncc2c1)c1ccccc1-c1ccccc1` [Compound 28, (E)-3-(4-((E)-2-([1,1′-Biphenyl]-2-yl)-1-(1H-indazol-5-yl)but-1-en-1-yl)phenyl)acrylic acid], in the test on MCF-7 cells, the “MCF7 Viability Assay Max Response” value is listed as “++ (++ = a single % value ≧ 40%)” and the IC50 is over 100 nM. Moreover, at ER-α in MCF-7 cells [2], the Emax was at least 40% and the DC50 was over 100 nM.

In the case of `CC/C(=C(/c1ccc(/C=C/C(=O)O)cc1)c1ccc2[nH]ncc2c1)c1ccc(-n2cccn2)cc1` [Compound 264, (E)-3-(4-((E)-2-(4-(1H-Pyrazol-1-yl)phenyl)-1-(1H-indazol-5-yl)but-1-en-1-yl)phenyl)acrylic acid], in the test on MCF-7 cells, the “MCF7 Viability Assay Max Response” value is on record as “++ (++ = a single % value ≧ 40%)” and the IC50 was over 100 nM. Also, on ER-α in MCF-7 cells [2], the Emax is at least 40% and the DC50 was over 100 nM.

Take `CC/C(=C(/c1ccc(/C=C/C(=O)O)cc1)c1ccc2[nH]ncc2c1)c1ccnn1C` [Compound 208, (E)-3-(4-((E)-1-(1H-Indazol-5-yl)-2-(1-methyl-1H-pyrazol-5-yl)but-1-en-1-yl)phenyl)acrylic acid]: in the test with MCF-7 cells, the “MCF7 Viability Assay Max Response” value was “+ (+ = a single % value < 40%)” and the half-inhibitory concentration (IC50) was over 100 nM. Also, at ER-α in MCF-7 cells [2], the Emax was at least 40% and the DC50 is over 100 nM.

`CC/C(=C(/c1ccc(/C=C/C(=O)O)cc1)c1ccc2[nH]ncc2c1)c1cc(Oc2ccccc2)ccc1C` [Compound 297, (E)-3-(4-((E)-1-(1H-Indazol-5-yl)-2-(2-methyl-5-phenoxyphenyl)but-1-en-1-yl)phenyl)acrylic acid]: in the test with MCF-7 cells, the “MCF7 Viability Assay Max Response” value is on record as “++ (++ = a single % value ≧ 40%)” and the IC50 was at most 100 nM. In addition, on ER-α in MCF-7 cells [2], the Emax was at least 40% and the DC50 is at most 100 nM.

On to `CC/C(=C(/c1ccc(/C=C/C(N)=O)cc1)c1ccc2scnc2c1)c1ccccc1` [Compound 426, (E)-3-(4-((E)-1-(Benzo[d]thiazol-5-yl)-2-phenylbut-1-en-1-yl)phenyl)acrylamide], for which, in the test on MCF-7 cells, the “MCF7 Viability Assay Max Response” value is recorded as “++ (++ = a single % value ≧ 40%)” and the IC50 was at most 100 nM. On ER-α in MCF-7 cells [2], the Emax is at least 40% and the DC50 is at most 100 nM.

For `CC/C(=C(/c1ccc(/C=C/C(=O)O)cc1)c1ccc2[nH]ncc2c1)c1ccc(Oc2ncccn2)cc1` [Compound 290, (E)-3-(4-((E)-1-(1H-Indazol-5-yl)-2-(4-(pyrimidin-2-yloxy)phenyl)but-1-en-1-yl)phenyl)acrylic acid], in the test on MCF-7 cells, the “MCF7 Viability Assay Max Response” value is reported as “++ (++ = a single % value ≧ 40%)” and the IC50 was at most 100 nM. In addition, at ER-α in MCF-7 cells [2], the Emax was at least 40% and the DC50 was at most 100 nM.

As to `CC/C(=C(/c1ccc(/C=C/C(=O)O)cc1)c1ccc2cn[nH]c2c1)c1ccccc1` [Compound 5, (E)-3-(4-((E)-1-(1H-Indazol-6-yl)-2-phenylbut-1-en-1-yl)phenyl)acrylic acid], in the test with MCF-7 cells, the “MCF7 Viability Assay Max Response” value is “++ (++ = a single % value ≧ 40%)” and the IC50 is over 100 nM. Further, the Emax on ER-α in MCF-7 cells [2] is at least 40%.

Regarding `CC/C(=C(/c1ccc(/C=C/C(=O)O)cc1)c1ccc2sc(C)nc2c1)c1ccccc1` [Compound 159, (E)-3-(4-((E)-1-(2-Methylbenzo[d]thiazol-5-yl)-2-phenylbut-1-en-1-yl)phenyl)acrylic acid], in the test on MCF-7 cells, the “MCF7 Viability Assay Max Response” value is on record as “++ (++ = a single % value ≧ 40%)” and the IC50 is over 100 nM. Further, on ER-α in MCF-7 cells [2], the Emax is at least 40% and the DC50 is over 100 nM.

`CC/C(=C(/c1ccc(/C=C/C(=O)O)cc1)c1ccc2[nH]ncc2c1)c1ccncc1Cl` [Compound 204, (E)-3-(4-((E)-2-(3-Chloropyridin-4-yl)-1-(1H-indazol-5-yl)but-1-en-1-yl)phenyl)acrylic acid]: in the test with MCF-7 cells, the “MCF7 Viability Assay Max Response” value is “++ (++ = a single % value ≧ 40%)” and the IC50 is at most 100 nM. The Emax on ER-α in MCF-7 cells [2] was at least 40%.

With `CC/C(=C(/c1ccc(/C=C/C(=O)Nc2nn[nH]n2)cc1)c1ccc2[nH]ncc2c1)c1ccc(F)cc1Cl` [Compound 425, (E)-3-(4-((E)-2-(2-Chloro-4-fluorophenyl)-1-(1H-indazol-5-yl)but-1-en-1-yl)phenyl)-N-(2H-tetrazol-5-yl)acrylamide], in the test on MCF-7 cells, the “MCF7 Viability Assay Max Response” value was “++ (++ = a single % value ≧ 40%)” and the IC50 is at most 100 nM. For the same compound, on ER-α in MCF-7 cells [2], the Emax is at least 40% and the DC50 is at most 100 nM.

Turning to `CC/C(=C(/c1ccc(OC2(C(=O)O)CC2)cc1)c1ccc2[nH]ncc2c1)c1ccc(F)cc1Cl` [Compound 332, (E)-1-(4-(2-(2-Chloro-4-fluorophenyl)-1-(1H-indazol-5-yl)but-1-en-1-yl)phenoxy)cyclopropanecarboxylic acid], in the test with MCF-7 cells, the “MCF7 Viability Assay Max Response” value is “++ (++ = a single % value ≧ 40%)” and the IC50 was over 100 nM. In addition, at ER-α in MCF-7 cells [2], the Emax was at least 40% and the DC50 was over 100 nM.
